# Results as given in patent EP2826473A1, “NOVEL USE OF PATCHOULOL” (Chengdu Huasun Group Inc., Ltd., priority 2012, dated 2013).
# Counter-ions that a name gives are not always drawn. Like-named read-outs stand apart in the source and are kept apart here.
# How the values were obtained:
# Format in all cases: cell-based
# [1] = system: Staphylococcus aureus MSSA; assay: in vitro bacteriostatic activity, agar dilution MIC; conditions: Staphylococcus aureus, MSSA
# [2] = system: Staphylococcus epidermidis MSSE; assay: as above
# Enterococcus faecalis = assay: as above; conditions: Enterococcus faecalis, read-out: MIC
# Enterococcus faecium = assay: as above; conditions: Enterococcus faecium, read-out: MIC
# [3] = system: Staphylococcus aureus MRSA; assay: as above; conditions: MRSA
# [4] = system: Staphylococcus epidermidis MRSE; assay: as above
# Streptococcus pneumoniae = assay: as above
# Escherichia coli E^- = assay: as above
# Klebsiella pneumonia E^- = assay: as above
# Klebsiella pneumonia E^+ = assay: as above; conditions: Klebsiella pneumoniae
# [5] = system: Staphylococcus epidermidis ATCC 12228; assay: in vitro bacteriostatic activity, agar dilution MIC, quality control strain; conditions: Staphylococcus epidermidis, ATCC12228
# Staphylococcus aureus = assay: in vitro bacteriostatic activity, agar dilution MIC, quality control strains; conditions: ATCC25923; Staphylococcus aureus ATCC 25923; read-out: MIC
# Escherichia coli = assay: in vitro bacteriostatic activity, agar dilution MIC, quality control strain and summary; conditions: ATCC25922; Escherichia coli ATCC 25922; read-out: MIC
# Klebsiella pneumonia = assay: as above; conditions: Klebsiella pneumoniae, ATCC700603; Klebsiella pneumonia ATCC 700603; read-out: MIC
structure (smiles),measurement,setting,value
"C[C@H]1COc2c(N3CCN(C)CC3)c(F)cc3c(=O)c(C(=O)O)cn1c23 [levofloxacin, Levofloxacin hydrochloride]",MIC,"[1]; Staphylococcus aureus MSSA 10-38, read-out: MIC",0.1 µg/mL
same,MIC,"[1]; Staphylococcus aureus MSSA 10-40, read-out: MIC",0.1 µg/mL
same,MIC,"[1]; Staphylococcus aureus MSSA 10-41, read-out: MIC",0.1 µg/mL
same,MIC,[1]; Staphylococcus aureus MSSA 12-11,0.125 µg/mL
same,MIC,[1]; Staphylococcus aureus MSSA 12-13,0.125 µg/mL
same,MIC,[1]; Staphylococcus aureus MSSA 12-14,0.125 µg/mL
same,MIC,[1]; Staphylococcus aureus MSSA 12-15,0.125 µg/mL
same,MIC,"[1]; Staphylococcus aureus MSSA 12-16, read-out: MIC",0.06 µg/mL
same,MIC,"[1]; Staphylococcus aureus MSSA 12-17, read-out: MIC",0.06 µg/mL
same,MIC,[1]; Staphylococcus aureus MSSA 12-18,0.125 µg/mL
same,MIC,"[1]; Staphylococcus aureus MSSA 12-19, read-out: MIC",0.06 µg/mL
same,MIC,[1]; Staphylococcus aureus MSSA 12-20,0.125 µg/mL
same,MIC,[1]; Staphylococcus aureus MSSA 12-21,0.125 µg/mL
same,MIC,[2]; Staphylococcus epidermidis,0.125 µg/mL
same,MIC,[2]; Staphylococcus epidermidis MSSE 12-12,0.125 µg/mL
same,MIC,[2]; Staphylococcus epidermidis MSSE 12-16,0.125 µg/mL
same,MIC,"[2]; Staphylococcus epidermidis, Staphylococcus epidermidis MSSE 10-43, read-out: MIC",0.1 µg/mL
same,MIC,"[2]; Staphylococcus epidermidis, Staphylococcus epidermidis MSSE 10-44, read-out: MIC",3.1 µg/mL
same,MIC,"[2]; Staphylococcus epidermidis, Staphylococcus epidermidis MSSE 12-13, read-out: MIC",0.5 µg/mL
same,MIC,"[2]; Staphylococcus epidermidis, Staphylococcus epidermidis MSSE 12-14, read-out: MIC",0.5 µg/mL
same,MIC,"[2]; Staphylococcus epidermidis, Staphylococcus epidermidis MSSE 12-15, read-out: MIC",0.5 µg/mL
same,MIC,"[2]; Staphylococcus epidermidis, Staphylococcus epidermidis MSSE 12-17, read-out: MIC",0.5 µg/mL
same,MIC,"[2]; Staphylococcus epidermidis, Staphylococcus epidermidis MSSE 12-18, read-out: MIC",1 µg/mL
same,MIC,"[2]; Staphylococcus epidermidis, Staphylococcus epidermidis MSSE 12-19, read-out: MIC",0.5 µg/mL
same,MIC,"[2]; Staphylococcus epidermidis, Staphylococcus epidermidis MSSE 12-20, read-out: MIC",1 µg/mL
same,MIC,"Enterococcus faecalis; ATCC29212, Enterococcus faecalis ATCC 29212",0.25 µg/mL
same,MIC,"Enterococcus faecalis; ATCC51299, Enterococcus faecalis (high endurance) ATCC 51299",0.25 µg/mL
same,MIC,Enterococcus faecalis; Enterococcus faecalis 12-11,16 µg/mL
same,MIC,Enterococcus faecalis; Enterococcus faecalis 12-12,32 µg/mL
same,MIC,Enterococcus faecalis; Enterococcus faecalis 12-13,8 µg/mL
same,MIC,Enterococcus faecalis; Enterococcus faecalis 12-14,64 µg/mL
same,MIC,Enterococcus faecalis; Enterococcus faecalis 12-17,0.5 µg/mL
same,MIC,Enterococcus faecalis; Enterococcus faecalis 12-18,0.5 µg/mL
same,MIC,Enterococcus faecalis; Enterococcus faecalis 12-19,32 µg/mL
same,MIC,Enterococcus faecalis; Enterococcus faecalis 12-20,4 µg/mL
same,MIC,Enterococcus faecalis; Enterococcus faecalis 12-21,4 µg/mL
same,MIC,Enterococcus faecalis; Enterococcus faecalis 12-22,8 µg/mL
same,MIC,"Enterococcus faecium; ATCC33186, Enterococcus faecium ATCC 33186",1 µg/mL
same,MIC,Enterococcus faecium; Enterococcus faecium 12-7,32 µg/mL
same,MIC,Enterococcus faecium; Enterococcus faecium 12-8,64 µg/mL
same,MIC,Enterococcus faecium; Enterococcus faecium 12-9,32 µg/mL
same,MIC,Enterococcus faecium; Enterococcus faecium 12-10,32 µg/mL
same,MIC,Enterococcus faecium; Enterococcus faecium 12-11,32 µg/mL
same,MIC,Enterococcus faecium; Enterococcus faecium 12-12,64 µg/mL
same,MIC,Enterococcus faecium; Enterococcus faecium 12-13,64 µg/mL
same,MIC,Enterococcus faecium; Enterococcus faecium 12-14,32 µg/mL
same,MIC,Enterococcus faecium; Enterococcus faecium 12-15,32 µg/mL
same,MIC,Enterococcus faecium; Enterococcus faecium 12-16,64 µg/mL
same,MIC,"[3]; Staphylococcus aureus MRSA 10-31, read-out: MIC",25 µg/mL
same,MIC,"[3]; Staphylococcus aureus MRSA 10-32, read-out: MIC",12.5 µg/mL
same,MIC,"[4]; Staphylococcus epidermidis MRSE 10-40, read-out: MIC",0.1 µg/mL
same,MIC,"[4]; Staphylococcus epidermidis MRSE 10-44, read-out: MIC",3.1 µg/mL
same,MIC,"Streptococcus pneumoniae; ATCC49619, Streptococcus pneumonia ATCC 49619",0.1 µg/mL
same,MIC,Streptococcus pneumoniae; Streptococcus pneumonia 12-6,25 µg/mL
same,MIC,Streptococcus pneumoniae; Streptococcus pneumonia 12-7,12.5 µg/mL
same,MIC,Streptococcus pneumoniae; Streptococcus pneumonia 12-8,25 µg/mL
same,MIC,Streptococcus pneumoniae; Streptococcus pneumonia 12-9,25 µg/mL
same,MIC,Streptococcus pneumoniae; Streptococcus pneumonia 12-10,12.5 µg/mL
same,MIC,Streptococcus pneumoniae; Streptococcus pneumoniae 12-1,12.5 µg/mL
same,MIC,Streptococcus pneumoniae; Streptococcus pneumoniae 12-2,25 µg/mL
same,MIC,Streptococcus pneumoniae; Streptococcus pneumoniae 12-3,25 µg/mL
same,MIC,Streptococcus pneumoniae; Streptococcus pneumoniae 12-4,25 µg/mL
same,MIC,Streptococcus pneumoniae; Streptococcus pneumoniae 12-5,25 µg/mL
same,MIC,Escherichia coli E^-; Escherichia coli E^- 10-12,0.1 µg/mL
same,MIC,Escherichia coli E^-; Escherichia coli E^- 10-18,12.5 µg/mL
same,MIC,Klebsiella pneumonia E^-; Klebsiella pneumonia E^- 10-18,0.025 µg/mL
same,MIC,"Klebsiella pneumonia E^-; Klebsiella pneumoniae, Klebsiella pneumonia E^- 10-16, read-out: MIC",0.025 µg/mL
same,MIC,Klebsiella pneumonia E^+; Klebsiella pneumonia E^+ 10-2,12.5 µg/mL
same,MIC,Klebsiella pneumonia E^+; Klebsiella pneumonia E^+ 10-6,0.0125 µg/mL
same,MIC,[5],0.125 µg/mL
same,MIC,Staphylococcus aureus,0.1 µg/mL
same,MIC,Escherichia coli,< 0.006 µg/mL
same,MIC,Klebsiella pneumonia,0.39 µg/mL
